What is called viability is a per cent measure of how many cells are alive, often set against a control. The term IC50 denotes the concentration at which inhibition is half-maximal.

Series [1] deals with normal mammary epithelial MCF-10A cells. In words: MTT cell viability assay in normal MCF-10A cells. In kind it is cell-based. The settings on record: tested at 25 µM, 50 µM and 100 µM. How it is done: (§1) We also included normal mammary epithelial MCF-10A cells in our experiments to confirm if the growth-inhibitory activities of the selected compounds are truly cancer cell-specific. The activity data from MCF-7 and MDA-MB-453 cell lines (tested at 1 µM, 10 µM and 25 µM) and activity data from MCF-10A cell line (tested at 25 µM, 50 µM and 100 µM) are summarized in Table 3. To evaluate cell viability, the MTT assay was conducted following standard procedures. After 72 h of cell incubation with or without each compound, cell viability was assessed using MTT (3-(4,5-dimethylthiazol-2-yl)-2,5-diphenyltetrazolium bromide), which is a colorimetric method for determining the number of viable cells in various assays including proliferation, cytotoxicity, or chemosensitivity. The MTT reagent was added to the cells after removal of the medium and incubated for 3 h at 37 °C in the CO2 incubator. The formazan product, which is […] in the tissue culture medium, was dissolved in DMSO, and the absorbance of the formazan product was directly measured at 595 nm using a multimode plate reader without additional processing. The absorbance values are directly proportional to the number of viable cells in culture. The percentage of viable cells in each group was determined relative to the untreated control cells.

The nature of series [2]: MTT cell viability assay in normal MCF-10A cells. In kind it is cell-based. The settings on record: human, MCF-10A normal mammary epithelial cells, MCF-10A normal cells, read-out: Cell viability (%) ± SD. How it is done:
as §1

Series [3] relates to MDA-MB-453 (HER2 positive breast cancer cells). In words: MTT cell viability assay in MDA-MB-453 cells. In kind it is cell-based, human. How it is done:
as §1, with “MDA-MB-231 represents a specific subtype known as triple-negative breast cancer (TNBC). The investigation study was extended with active six hit compounds (9a, 9d, 9h, 10d, 10f, and 11g) in two other different cancer cell lines (MCF-7 and MDA-MB-453), each representing a separate class of breast cancers (MCF-7: hormone receptor/HR-positive; MDA-MB-453: human epidermal growth factor 2 receptor/HER2 positive). […] We” for “We”

The test system of series [4] is MCF-7 (hormone receptor/HR-positive breast cancer cells). In words: MTT cell viability assay in MCF-7 cells. In kind it is cell-based. The settings on record: Homo sapiens, MCF7, 72 h, concentrations 10 µM, 25 µM and 50 μM in Fig. 10, read-out: IC50 against MCF-7 breast cancer cells line.
Series [5] shares this test system. In words: MTT cell viability assay in MCF-7 cells. In kind it is cell-based. The settings on record: Homo sapiens, MCF7, read-out: Cell viability (%) ± SD. How it is done:
MDA-MB-231 represents a specific subtype known as triple-negative breast cancer (TNBC). The investigation study was extended with active six hit compounds (9a, 9d, 9h, 10d, 10f, and 11g) in two other different cancer cell lines (MCF-7 and MDA-MB-453), each representing a separate class of breast cancers (MCF-7: hormone receptor/HR-positive; MDA-MB-453: human epidermal growth factor 2 receptor/HER2 positive).
We also included normal mammary epithelial MCF-10A cells in our experiments to confirm if the growth-inhibitory activities of the selected compounds are truly cancer cell-specific. The activity data from MCF-7 and MDA-MB-453 cell lines (tested at 1 µM, 10 µM and 25 µM) and activity data from MCF-10A cell line (tested at 25 µM, 50 µM and 100 µM) are summarized in Table 3.
as §1, with “To” for “We also included normal mammary epithelial MCF-10A cells in our experiments to confirm if the growth-inhibitory activities of the selected compounds are truly cancer cell-specific. The activity data from MCF-7 and MDA-MB-453 cell lines (tested at 1 µM, 10 µM and 25 µM) and activity data from MCF-10A cell line (tested at 25 µM, 50 µM and 100 µM) are summarized in Table 3. To”

`CC(=O)OC[C@H]1O[C@@H](n2cc(COc3cc(-c4ccc(C(F)(F)F)cc4)nc4ccnn34)nn2)[C@H](OC(C)=O)[C@@H](OC(C)=O)[C@H]1OC(C)=O` [Compound 10f, (2R,3S,4S,5R,6R)-2-(acetoxymethyl)-6-(4-(((5-(4-(trifluoromethyl)phenyl)pyrazolo[1,5-a]pyrimidin-7-yl)oxy)methyl)-1H-1,2,3-triazol-1-yl)tetrahydro-2H-pyran-3,4,5-triyl triacetate]: in series [1], the “growth inhibitory activity against normal breast epithelial cell (MCF-10A) (in words)” value is “none of these compounds did have any growth inhibitory activity”. Further, in series [2] (25 µM), the viability at 72 h, 25 µM is 86.6 ± 1.5%. Further, in series [2] (50 µM), the viability at 72 h, 50 µM worked out at 88.1 ± 2.8%. Also, in series [2] (100 µM), the viability at 72 h, 100 µM came out at 84.2 ± 3%. Moreover, the viability at 1 µM in series [3] (Homo sapiens, MDA-MB-453, 1 µM, read-out: Cell viability (%) ± SD) is 92.5 ± 4.6%; in series [5] (MCF-7, 1 µM), 51.3 ± 3.1%. Further, the viability at 10 µM in series [3] (Homo sapiens, MDA-MB-453, 10 µM, read-out: Cell viability (%) ± SD) came out at 80.9 ± 1.2%; in series [5] (MCF-7, 10 µM), 28.4 ± 0.9%. Also, the viability at 25 µM in series [3] (Homo sapiens, MDA-MB-453, 25 µM, read-out: Cell viability (%) ± SD) is 66.8 ± 1.7%; in series [5] (MCF-7, 25 µM) it was 21.1 ± 4.4%. Also, the “IC50 value against MDA-MB-453 cells (in words)” value in series [3] (tested at 1 µM, 10 µM and 25 µM) is reported as “did not reach up to IC50 value”. Further, the half-inhibitory concentration (IC50) in series [4] amounted to 42.1 µM.

These data come from article PMC10766964, “Copper-catalyzed synthesis of pyrazolo[1,5-a]pyrimidine based triazole-linked glycohybrids: mechanistic insights and bio-applications” (Scientific Reports, 2024).
